This note sets out measurements from US6440958B1, “Acrylic and propionic acid compounds, intermediates, processes, compositions, and methods” (Eli Lilly and Company, priority 1995, dated 2002).

The subject of series [1] is ovariectomized (OVX) rats. Description: Uterine wet weight in ovariectomized rat post-menopausal model. Type of series: in vivo, Sprague Dawley rats. As to conditions: for Uterine weight (% increase vs. OVX): oral, daily for 4 days, OVX rats. The protocol:
(§1) In the examples illustrating the methods, a post-menopausal model was used in which effects of different treatments upon circulating lipids were determined.
(§2) Seventy-five day old female Sprague Dawley rats (weight range of 200 to 225g) were obtained from Charles River Laboratories (Portage, Mich.). The animals were either bilaterally ovariectomized (OVX) or exposed to a Sham surgical procedure at Charles River Laboratories, and then shipped after one week. Upon arrival, they were housed in metal hanging cages in groups of 3 or 4 per cage and had ad libitum access to food (calcium content approximately 0.5%) and water for one week. Room temperature was maintained at 22.2°±1.7° C. with a minimum relative humidity of 40%. The photoperiod in the room was 12 hours light and 12 hours dark.
(§3) Dosing Regimen Tissue Collection. After a one week acclimation period (therefore, two weeks post-OVX) daily dosing with test compound was initiated. 17α-ethynyl estradiol or the test compound were given orally, unless otherwise stated, as a suspension in 1% carboxymethylcellulose or dissolved or suspended in 20% cyclodextrin. Animals were dosed daily for 4 days. Following the dosing regimen, animals were weighed and anesthetized with a ketamine: Xylazine (2:1, V:V) mixture and a blood sample was collected by cardiac puncture. The animals were then sacrificed by asphyxiation with CO2, the uterus was removed through a midline incision, and a wet uterine weight was determined.

For series [2], the system named is ovariectomized (OVX) rats. Description: Uterine eosinophil peroxidase (EPO) assay. As to conditions: oral, daily for 4 days. On the set-up: unit not given here. It counts as in vivo, Sprague Dawley rats.
Text: as §2, §3
Uterine Eosinoihil Peroxidase (EPO) Assay. Uteri were kept at 4° C. until time of enzymatic analysis. The uteri were then homogenized in 50 volumes of 50 mM Tris buffer (pH -8.0) containing 0.005% Triton X-100. Upon addition of 0.01% hydrogen peroxide and 10 mM O-phenylenediamine (final concentrations) in Tris buffer, increase in absorbance was monitored for one minute at 450 nm. The presence of eosonophils in the uterus is an indication of estrogenic activity of a compound. The maximal velocity of a 15 second interval was determined over the initial, linear portion of the reaction curve.

The test system of series [3] is ovariectomized (OVX) rats. Description: Serum cholesterol in ovariectomized rat post-menopausal model. As to conditions: oral, daily for 4 days. Type of series: in vivo, Sprague Dawley rats. The protocol:
as §1, §2, §3
Cholesterol Analysis. Blood samples were allowed to clot at room temperature for 2 hours, and serum was obtained following centrifugation for 10 minutes at 3000 rpm. Serum cholesterol was determined using a Boehringer Mannheim Diagnostics high performance cholesterol assay. Briefly the cholesterol was oxidized to cholest-4-en-3-one and hydrogen peroxide. The hydrogen peroxide was then reacted with phenol and 4-aminophenazone in the presence of peroxidase to produce a p-quinone imine dye, which was read spectrophotometrically at 500 nm. Cholesterol concentration was then calculated against a standard curve. The entire assay was automated using a Biomek Automated Workstation.

For series [4], the system named is ovariectomized (OVX) rats. Description: Uterine eosinophil peroxidase (EPO) assay. It counts as in vivo, Sprague Dawley rats.
[5] abbreviates: dose 0.1 mg/kg, test compounds in CDX (cyclodextrin) susp. or soln.
The mark [6] stands for this setting: dose 1 mg/kg, CDX susp. or soln.
[7] abbreviates: dose 10 mg/kg, CDX susp. or soln.
Where [8] appears, read: dose 0.1 mg/kg, test compounds in CDX susp. or soln.

What is called melting point is the temperature of the solid-liquid transition. Turning to `O=C(O)CCc1ccc(C(=O)c2c(-c3ccc(O)cc3)sc3cc(O)ccc23)cc1` [Example 4, 6-hydroxy-3-[4-(2-carboxyethyl)benzoyl]-2-(4-hydroxyphenyl)benzo[b]thiophene], the melting point fell in the range of 244 to 248 °C. The “Uterine weight (% increase vs. OVX)” value in series [1] (setting [5]) is −45.9%. Moreover, the “Uterine weight (% increase vs. OVX)” value in series [1] (setting [6]) was −37.0%. In addition, the “Uterine weight (% increase vs. OVX)” value in series [1] (setting [7]) worked out at 29.3%. In addition, in series [2] (setting [8]), the “Uterine EPO (V. max)” value was determined as 0.0. For the same molecule, in series [2] (setting [6]), the “Uterine EPO (V. max)” value is listed as 0.0. Further, in series [2] (setting [7]), the “Uterine EPO (V. max)” value is given as 1.2. For the same molecule, the “Serum Cholesterol (% decrease vs. OVX)” value in series [3] (setting [8]) is listed as −46.2%. Besides, the “Serum Cholesterol (% decrease vs. OVX)” value in series [3] (setting [6]) is listed as −28.8%. Further, the “Serum Cholesterol (% decrease vs. OVX)” value in series [3] (setting [7]) was 16.5%.

With `O=C(O)/C=C/c1ccc(C(=O)c2c(-c3ccc(O)cc3)sc3cc(O)ccc23)cc1` [Example 3, (E)-6-hydroxy-3-[4-(2-carboxyvinyl)benzoyl]-2-(4-hydroxyphenyl)benzo[b]thiophene], the “Uterine weight (% increase vs. OVX)” value in series [1] (setting [5]) is recorded as 23.9%; in series [1] (setting [6]), 19.7%; in series [1] (setting [7]) it was 97.3%. Besides, the “Uterine EPO (V. max)” value was 0.9 in series [2] (setting [8]), 1.2 in series [2] (setting [6]) and 8.4 in series [2] (setting [7]). Besides, the “Serum Cholesterol (% decrease vs. OVX)” value in series [3] (setting [8]) is given as −15.1%; in series [3] (setting [6]) it was −26.6%; in series [3] (setting [7]), 57.7%.

Turning to `C#C[C@]1(O)CC[C@H]2[C@@H]3CCc4cc(O)ccc4[C@H]3CC[C@@]21C` [EE2, 17α-ethynyl estradiol, reference compound], in series [1] (setting [5]), the “Uterine weight (% increase vs. OVX)” value worked out at 201.3%. Moreover, in series [1] (orally administered at 0.1 mg/kg/day, vs. ovariectomized test animals), the “Effect on uterus / uterine weight (in words)” value is on record as “uterine weight was substantially greater than the uterine weight of ovariectomized test animals”. In addition, the “Uterine EPO (V. max)” value in series [2] (setting [8]) is listed as 130.5. Further, in series [3] (setting [8]), the “Serum Cholesterol (% decrease vs. OVX)” value is recorded as 68.6%. For the same molecule, the “Eosinophil infiltration into the uterus (stromal layer), in words” value in series [4] was “substantial, expected increase in eosinophil infiltration”.

Molecule `COc1ccc(-c2sc3cc(OC)ccc3c2C(=O)c2ccc(/C=C/C(=O)O)cc2)cc1` [Example 2] displayed a melting point of 204 to 207 °C. The “Uterine weight (% increase vs. OVX)” value in series [1] (setting [5]) came out at 25.0%. Further, the “Uterine weight (% increase vs. OVX)” value in series [1] (setting [6]) was 23.3%. Further, in series [1] (setting [7]), the “Uterine weight (% increase vs. OVX)” value is given as 119.9%. Moreover, the “Uterine EPO (V. max)” value in series [2] (setting [8]) came to 2.1. Further, the “Uterine EPO (V. max)” value in series [2] (setting [6]) turned out to be 2.1. In addition, in series [2] (setting [7]), the “Uterine EPO (V. max)” value stood at 35.1. For the same molecule, the “Serum Cholesterol (% decrease vs. OVX)” value in series [3] (setting [8]) is recorded as −16.6%. Moreover, in series [3] (setting [6]), the “Serum Cholesterol (% decrease vs. OVX)” value is reported as −37.3%. Besides, the “Serum Cholesterol (% decrease vs. OVX)” value in series [3] (setting [7]) is reported as 73.2%.
